Reference: patent US10589078B2, “Metallic microneedles” (MICRODERMICS INC., priority 2013, dated 2020)

Format: in vitro ADME
Details: pig, 3 min, 174 μM
Method: A 500 μm tall prototype nickel microneedle 120 fabricated using the method depicted in FIGS. 1A-1G was used to inject a fluorescent chemotherapeutic drug (doxorubicin) into pigskin. A backing plate of the microneedle was bonded to a drug container that was connected to a conventional syringe via a flexible plastic capillary tube. The syringe was filled with a 174 μM solution of doxorubicin in water. The syringe was placed in a commercial syringe pump system (from KD Scientific™ of Holliston, Mass.). The microneedle 120 was applied to a shaved pigskin sample. The pump was set to push the plunger to generate a constant flow rate of 0.2 μL/minute for 3 minutes. This flow rate was selected based on a study investigating the efficiency of transdermal drug injection using silicon microneedles (U. O. Häfeli, et al., (2009), Biomed. Microdevices, Vol. 11, pp. 943-950) which found an average delivery rate of 0.2 μL/minute through each needle in an injection trial. After the injection, the skin was cleaned and then scanned using confocal microscopy.

depth of penetration of doxorubicin into the skin: approximately 130 μm
SMILES: COc1cccc2c1C(=O)c1c(O)c3c(c(O)c1C2=O)C[C@@](O)(C(=O)CO)C[C@@H]3O[C@H]1C[C@H](N)[C@H](O)[C@H](C)O1 [doxorubicin]
